These results are taken from patent publication US7713994B2 (Wyeth LLC, priority 2005, dated 2010).

The target of the test is T1, IGF1-receptor kinase (Homo sapiens, UniProt P08069).
T1 construct: Purified GST-IGFR; purified Bis-IGFR and Tris-IGFR; fused on or other part: GST with a thrombin cleavage site, removed in the Bis-IGFR and Tris-IGFR forms
The test is described as follows: IGF1-R kinase assay (96-well FRET Lance). The test is classed as biochemical. To be noted: for pIC50: 100 micromolar ATP, read-out: Igfr ic50. An excerpt:
• TITLE: 96-well assay for inhibitors of IGF1-receptor kinase activity • SHORT TITLE: IGF1-R kinase assay • PURPOSE: Identify inhibitors of IGF-1 receptor kinase activity • MATERIALS AND METHODS: Overview: This is a 96-well FRET (Lance) tyrosine kinase assay. • Materials: • Purified GST-IGFR; purified Bis-IGFR and Tris-IGFR; expressed in ExpresSF insect cells. Bis and Tris IGFR are made by phosphorylating the IGFR in the presence of ATP and Mg2+, followed by thrombin cleavage to remove the GST-thrombin cleavage site, and purification by HPLC. The Bis and tris IGFR are phosphorylated on two (bis) or all three tyrosines (tris) in the activation loop. • Biotinylated peptide with a sequence corresponding to the sequence surrounding the autophosphorylation sites in IGF1-R Biotin-NH2-[…]-OH (Anaspec) • Europium-conjugated phosphotyrosine antibody (PT66) (Perkin-Elmer). • Surelight APC (Perkin-elmer) • Plates: 96-well Assay plates (polypropylene plates, natural color) • 96-well-Lance plates (Microfluor 2 black plates; Cat # 7205; Thermolabsystems. • ATP: (Amersham Pharmacia Cat # 27-2056-01), 100 mM stock. • IGFR Lance Protocol (96-well format) • Procedure: • Reagents: • Kinase Buffer (10×): • 0.5 M Hepes, pH 7.5 rt • 0.1 M MgCl2 • Quench Buffer (to be added straight, 1:1, to r×n mix): • 50 mM Hepes, pH 7.5 rt • 50 mM EDTA • Lance Detection Buffer: • 20 mM Tris-HCl, pH 7.5 rt • 0.15 M NaCl-150 • 150 ug/ml BSA (Sigma Cat# A-7284) • Eu-labeled phosphotyrosine antibody PT66 (Perkin-Elmer): 1:4000 dilution of 200 μg/ml stock • Streptavidin-APC (Perkin Elmer): 1/250 (4 microgram/ml final) • ATP (Amersham Pharmacia cat #27-2056-01) 100 mM stock: Dilute to 1 mM (10×) in water. […] Transfer 12.5[…] of the kinase reaction to the antibody detection plate. Allow antibody to react for 1 h at rt in the dark. Then read in Victor with an excitation filter of 340 nm and an emission filter of 665 nm. • Compound additions: • When Example compounds are tested, they are added from a 10% DMSO/50 mM Hepes (pH 7.5) 10× stock. 5 microliters of compound in this buffer are added to the enzyme-peptide-buffer mix. After 10′ incubation at room temperature, ATP is added to start the reaction. A no ATP background control is included in the assay. • […] OF RESULTS: Data are analyzed as follows: % Inhibition={[Sample cpm−Bkg cpm]/[No cmpd cpm−Bkg cpm]}×100%. The biological activity of representative Examples of the invention is reported in Table VII as: 0.2 µM≦x≦10 µM or % inhibition@10 µM.

The structures appear in SMILES notation. pIC50: −log10 of the molar value.

T1 sequence (P08069 999-1274 limits assumed): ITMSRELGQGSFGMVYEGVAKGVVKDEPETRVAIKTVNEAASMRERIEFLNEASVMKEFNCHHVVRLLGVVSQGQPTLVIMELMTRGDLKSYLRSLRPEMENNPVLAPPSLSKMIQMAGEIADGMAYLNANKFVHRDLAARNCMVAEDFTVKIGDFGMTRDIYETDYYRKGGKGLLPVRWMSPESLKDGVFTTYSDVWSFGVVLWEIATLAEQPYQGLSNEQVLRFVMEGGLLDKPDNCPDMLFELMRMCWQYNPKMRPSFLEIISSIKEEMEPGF

A word on the pIC50: it is the IC50 on a negative log10 scale, so that one unit is a factor of ten. With `NC(=O)c1ccc(Nc2ccc3c(c2)/C(=C/Nc2ccc(CN4CCCCC4)cc2)C(=O)NC3=O)cc1` [Example 894, 4-{[(4Z)-1,3-dioxo-4-({[4-(piperidin-1-ylmethyl)phenyl]amino}methylene)-1,2,3,4-tetrahydroisoquinolin-6-yl]amino}benzamide], the pIC50 is 5.95. On the same count and under the same terms, the same measure for `O=C1NC(=O)c2ccc(Nc3ccc4c(c3)CCC4)cc2/C1=C/Nc1ccc(CN2CCCCC2)cc1` [Example 895, (4Z)-6-(2,3-dihydro-1H-inden-5-ylamino)-4-({[4-(piperidin-1-ylmethyl)phenyl]amino}methylene)isoquinoline-1,3(2H,4H)-dione]: 5.14.

As for `O=C1NC(=O)c2ccc(Nc3ccc4c(c3)OCO4)cc2/C1=C/Nc1ccc(CN2CCCCC2)cc1` [Example 896, (4Z)-6-(1,3-benzodioxol-5-ylamino)-4-({[4-(piperidin-1-ylmethyl)phenyl]amino}methylene)isoquinoline-1,3(2H,4H)-dione], the pIC50 was 6.08. With `N#Cc1ccc(Nc2ccc3c(c2)/C(=C/Nc2ccc(CN4CCCCC4)cc2)C(=O)NC3=O)cc1` [Example 897, 4-{[(4Z)-1,3-dioxo-4-({[4-(piperidin-1-ylmethyl)phenyl]amino}methylene)-1,2,3,4-tetrahydroisoquinolin-6-yl]amino}benzonitrile], the pIC50 is 5.82. Regarding `COc1ccc(Nc2ccc3c(c2)/C(=C/Nc2ccc(CN4CCCCC4)cc2)C(=O)NC3=O)cc1` [Example 898, (4Z)-6-[(4-methoxyphenyl)amino]-4-({[4-(piperidin-1-ylmethyl)phenyl]amino}methylene)isoquinoline-1,3(2H,4H)-dione], the pIC50 was 6.06. Same read-out and setting: with `O=C1NC(=O)c2ccc(Nc3cccc(F)c3)cc2/C1=C/Nc1ccc(CN2CCCCC2)cc1` [Example 899, (4Z)-6-[(3-fluorophenyl)amino]-4-({[4-(piperidin-1-ylmethyl)phenyl]amino}methylene)isoquinoline-1,3(2H,4H)-dione] the figure was 5.51. Consider `COc1cc(Nc2ccc3c(c2)/C(=C/Nc2ccc(CN4CCCCC4)cc2)C(=O)NC3=O)cc(C(F)(F)F)c1` [Example 900], for which the “Igfr % Inhibition at 10 uM” value (10 uM compound) was determined as 20%. Turning to `CC(=O)c1ccc(Nc2ccc3c(c2)/C(=C/Nc2ccc(CN4CCCCC4)cc2)C(=O)NC3=O)cc1` [Example 901, (4Z)-6-[(4-acetylphenyl)amino]-4-({[4-(piperidin-1-ylmethyl)phenyl]amino}methylene)isoquinoline-1,3(2H,4H)-dione], the pIC50 is 5.22. Same read-out and setting: the same measure for `N#Cc1ccccc1Nc1ccc2c(c1)/C(=C/Nc1ccc(CN3CCCCC3)cc1)C(=O)NC2=O` [Example 902, 2-{[(4Z)-1,3-dioxo-4-({[4-(piperidin-1-ylmethyl)phenyl]amino}methylene)-1,2,3,4-tetrahydroisoquinolin-6-yl]amino}benzonitrile]: 5.43. For orientation: inhibition means the relative decrease from the control value, in per cent. As to `CCOC(=O)c1ccc(Nc2ccc3c(c2)/C(=C/Nc2ccc(CN4CCCCC4)cc2)C(=O)NC3=O)cc1` [Example 903, ethyl 4-{[(4Z)-1,3-dioxo-4-({[4-(piperidin-1-ylmethyl)phenyl]amino}methylene)-1,2,3,4-tetrahydroisoquinolin-6-yl]amino}benzoate], the inhibition at 10 µM (10 uM compound, read-out: Igfr % Inhibition at 10 uM) came to 45%.

In the case of `O=C1NC(=O)c2ccc(Nc3ccccc3Cl)cc2/C1=C/Nc1ccc(CN2CCCCC2)cc1` [Example 904, (4Z)-6-[(2-chlorophenyl)amino]-4-({[4-(piperidin-1-ylmethyl)phenyl]amino}methylene)isoquinoline-1,3-(2H,4H)-dione], the pIC50 is 5.77. Still for that read-out and setting: with `O=C1NC(=O)c2ccc(Nc3cccc(Cl)c3)cc2/C1=C/Nc1ccc(CN2CCCCC2)cc1` [Example 905] the figure was 5.58; with `CN(C)Cc1ccc(N/C=C2\C(=O)NC(=O)c3ccc(Nc4ccccc4)cc32)cc1` [Example 906, (4Z)-6-anilino-4-[({4-[(dimethylamino)methyl]phenyl}amino)methylene]isoquinoline-1,3(2H,4H)-dione], 6.04.
